One assay has as its target T1, human VR1 (Homo sapiens, UniProt Q8NER1).
T1 construct: expressed in transfected cells
The experiment in a line: capsaicin-induced Ca2+ influx in the human VR1-transfected CHO cell line (Assay 1). The following applies: 10 nM capsaicin, human VR1-CHOluc9aeq cells; read-out: In vitro activity class. In kind it is cell-based. An excerpt: [Measurement of capsaicin-induced Ca^2+ influx in the human VR1-transfected CHO cell line] (Assay 1)
• (1) Establishment of the Human VR1-CHOluc9aeq Cell Line • Human vanilloid receptor (hVR1) cDNA was cloned from libraries of axotomized dorsal root ganglia (WO 00/29577). The cloned hVR1 cDNA was constructed with pcDNA3 vector and transfected into a CHOluc9aeq cell line. The cell line contains aequorin and CRE-luciferase reporter genes as read-out signals. The transfectants were cloned by limiting dilution in selection medium (DMEM/F12 medium (Gibco BRL) supplemented with 10% FCS, 1.4 mM Sodium pyruvate, 20 mM HEPES, 0.15% Sodium bicarbonate, 100 U/ml penicillin, 100 μg/ml streptomycin, 2 mM glutamine, non-essential amino acids and 2 mg/ml G418). Ca^2+ influx was examined in the capsaicin-stimulated clones. A high responder clone was selected and used for further experiments in the project. The human VR1-CHOluc9aeq cells were maintained in the selection medium and passaged every 3-4 days at 1-2.5×10^5 cells/flask ([…]). • (2) Measurement of Ca^2+ Influx Using FDSS-3000 • Human VR1-CHOluc9aeq cells were suspended in a culture medium which is the same as the selection medium except for G418 and seeded at a density of 1,000 cells per well into 384-well plates (black walled clear-base/Nalge Nunc International). Following the culture for 48 hrs the medium was changed to 2 μM Fluo-3 AM (Molecular Probes) and 0.02% Puronic F-127 in assay buffer (Hank's balanced salt solution (HBSS), 17 mM HEPES (pH7.4), 1 mM Probenecid, 0.1% BSA) and the cells were incubated for 60 min at. 25° C. After washing twice with assay buffer the cells were incubated with a test compound or vehicle for 20 min at 25° C. Mobilization of cytoplasmic Ca^2+ was measured by FDSS-3000 (λex=488 nm, λem=540 nm/Hamamatsu Photonics) for 60 sec after the stimulation with 10 nM capsaicin. Integral R was calculated and compared with controls. [Measurement of the Capsaicin-Induced Ca^2+ Influx in Primary Cultured Rat Dorsal Root Ganglia Neurons] (Assay 2) • (1) Preparation of Rat Dorsal Root Ganglia Neurons • New born Wister rats (5-11 days) were sacrificed and dorsal root ganglia (DRG) was removed. DRG was incubated with 0.1% trypsin (Gibco BRL) in PBS(−) (Gibco BRL) for 30 min at 37° C., then a half volume of fetal calf serum (FCS) was added and the cells were spun down. The DRG neuron cells were resuspended in Ham F12/5% FCS/5% horse serum (Gibco BRL) and dispersed by repeated pipetting and passing through 70 μm mesh Falcon). The culture plate was incubated for 3 hours at 37° C. to remove contaminating Schwann cells. Non-adherent cells were recovered and further cultured in laminin-coated 384 well plates (Nunc) at 1×10^4 cells/50 μl/well for 2 days in the presence of 50 ng/ml recombinant rat NGF (Sigma) and 50 μM 5-fluorodeoxyuridine (Sigma). • (2) Ca^2+ Mobilization Assay • DRG neuron cells were washed twice with HBSS supplemented with 17 mM HEPES (pH 7.4) and 0.1% BSA. After incubating with 2 μM fluo-3AM (Molecular Probe), 0.02% PF127 (Gibco BRL) and 1 mM probenecid (Sigma) for 40 min at 37° C., cells were washed 3 times. The cells were incubated with VR1 antagonists or vehicle (dimethylsulphoxide) and then with 1 μM capsaicin in FDSS-6000 (λex=480 nm, λem=520 nm/Hamamatsu Photonics). The fluorescence changes at 480 nm were monitored for 2.5 min. Integral R was calculated and compared with controls. [Organ Bath Assay to Measure the Capsaicin-Induced Bladder Contraction] (Assay 3)
The data corresponds to the compounds as yielded by solid phase synthesis and thus to levels of purity of about 40 to 90%. For practical reasons, the compounds are grouped in four classes of activity as follows: IC50=A(<or=)0.1 μM<B(<or=)0.5 μM<C(<or=)1 μM<D
T1 sequence (Q8NER1 whole entry): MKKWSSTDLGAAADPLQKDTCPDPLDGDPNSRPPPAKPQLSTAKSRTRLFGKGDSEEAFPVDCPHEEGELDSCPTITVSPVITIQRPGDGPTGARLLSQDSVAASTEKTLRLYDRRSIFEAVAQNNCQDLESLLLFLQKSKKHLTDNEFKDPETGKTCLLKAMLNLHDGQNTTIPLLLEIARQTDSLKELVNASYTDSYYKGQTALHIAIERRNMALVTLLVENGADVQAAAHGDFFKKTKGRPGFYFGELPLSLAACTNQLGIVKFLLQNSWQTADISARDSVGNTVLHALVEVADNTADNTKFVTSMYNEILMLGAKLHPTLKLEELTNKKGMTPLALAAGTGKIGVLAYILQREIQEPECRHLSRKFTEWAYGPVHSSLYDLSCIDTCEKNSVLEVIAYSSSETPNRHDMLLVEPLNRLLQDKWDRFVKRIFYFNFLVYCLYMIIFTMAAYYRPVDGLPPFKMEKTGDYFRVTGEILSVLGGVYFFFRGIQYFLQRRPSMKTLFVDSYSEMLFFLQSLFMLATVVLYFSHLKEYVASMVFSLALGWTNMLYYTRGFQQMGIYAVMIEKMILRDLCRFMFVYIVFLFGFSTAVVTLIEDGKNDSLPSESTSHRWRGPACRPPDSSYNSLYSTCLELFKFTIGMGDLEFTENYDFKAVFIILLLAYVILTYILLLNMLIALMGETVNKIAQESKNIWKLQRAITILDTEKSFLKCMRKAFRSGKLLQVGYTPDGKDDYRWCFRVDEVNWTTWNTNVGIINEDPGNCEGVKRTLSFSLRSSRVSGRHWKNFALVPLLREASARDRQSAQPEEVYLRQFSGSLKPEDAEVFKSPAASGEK
For the compound `O=C(Nc1ccccc1)Nc1cccc2c1CC(O)CC2` (centres unmarked) [Example 2-1, N-phenyl-N′-(7-hydroxy-5,6,7,8-tetrahydro-1-naphthalenyl) urea], the IC50 was 500 to 1000 nM.

For the compound `O=C(NCc1ccc(C(F)(F)F)cc1)Nc1cccc2c1C[C@@H](O)CC2` [Example 4-5, N-{(S)-7-hydroxy-5,6,7,8-tetrahydro-naphthalen-1-yl}-N′-(4-trifluoromethyl-benzyl)-urea], the IC50 is less than 100 nM.

The same assay, now with this note: Table 1; 10 nM capsaicin, human VR1-CHOluc9aeq cells; read-out: activity class.
Consider `Cc1cc(NC(=O)Nc2cccc3c2CC(O)CC3)ccc1Cl` (centres unmarked) [Example 2-36], for which the IC50 is less than 100 nM.

The same assay, now with this note: Table 2; 10 nM capsaicin, human VR1-CHOluc9aeq cells; read-out: activity class.
For `COc1ccc(CNC(=O)Nc2cccc3c2CC(O)CC3)c(OC)c1` (centres unmarked) [Example 4-20], the IC50 fell in the range of 100 to 500 nM.

With `CC(NC(=O)Nc1cccc2c1CC(O)CC2)c1ccc(F)cc1` (centres unmarked) [Example 4-41], the IC50 is 100 to 500 nM.

For `COc1ccccc1CNC(=O)Nc1cccc2c1CC(O)CC2` (centres unmarked) [Example 4-11], the IC50 lay in the range of 100 to 500 nM.

Turning to `CC(NC(=O)Nc1cccc2c1CC(O)CC2)c1cccc2ccccc12` (centres unmarked) [Example 4-49], the IC50 is less than 100 nM.

Take `O=C(NCc1cccc(C(F)(F)F)c1)Nc1cccc2c1CC(O)CC2` (centres unmarked) [Example 4-10]: the IC50 was less than 100 nM.

Regarding `O=C(NCc1ccc(F)c(F)c1)Nc1cccc2c1CC(O)CC2` (centres unmarked) [Example 4-12], the IC50 was less than 100 nM.

On to `Cc1ccc(Oc2ccc(NC(=O)Nc3cccc4c3CC(O)CC4)cc2)cc1` (centres unmarked) [Example 4-38], for which the IC50 is less than 100 nM.

Consider `COc1cc(OC)c(CNC(=O)Nc2cccc3c2CC(O)CC3)c(OC)c1` (centres unmarked) [Example 4-23], for which the IC50 fell in the range of 500 to 1000 nM.

Regarding `O=C(Nc1cccc2c1CC(O)CC2)NC(c1ccccc1)c1ccccc1` (centres unmarked) [Example 4-43], the IC50 was in the range of 500 to 1000 nM.

As for `O=C(NCc1cccc(Cl)c1)Nc1cccc2c1CC(O)CC2` (centres unmarked) [Example 4-14], the IC50 is less than 100 nM.

With `CC(C)(C)c1ccc(CNC(=O)Nc2cccc3c2CC(O)CC3)cc1` (centres unmarked) [Example 4-16], the IC50 was less than 100 nM.

As for `Nc1ccc(CNC(=O)Nc2cccc3c2CC(O)CC3)cc1` (centres unmarked) [Example 4-31], the IC50 was in the range of 500 to 1000 nM.

As for `O=C(NCc1ccc(C(F)(F)F)c(NC2CCCC2)c1)Nc1cccc2c1CC(O)CC2` (centres unmarked) [Example 4-51], the IC50 is less than 100 nM.

On to `O=C(NCc1ccc(C(F)(F)F)cc1)Nc1cccc2c1CC(O)CC2` (centres unmarked) [Example 4-8], for which the IC50 is less than 100 nM.

For the compound `Nc1ccccc1CNC(=O)Nc1cccc2c1CC(O)CC2` (centres unmarked) [Example 4-32], the IC50 lay within 500 to 1000 nM.

Turning to `CC(NC(=O)Nc1cccc2c1CC(O)CC2)c1ccc(Br)cc1` (centres unmarked) [Example 4-42], the IC50 is less than 100 nM.

`COc1ccc(CNC(=O)Nc2cccc3c2CC(O)CC3)cc1OC` (centres unmarked) [Example 4-27]: the IC50 lay in the range of 500 to 1000 nM.

For `O=C(NCc1cccc2ccccc12)Nc1cccc2c1CC(O)CC2` (centres unmarked) [Example 4-46], the IC50 is less than 100 nM.

As to `O=C(NCCc1ccc(Cl)cc1)Nc1cccc2c1CC(O)CC2` (centres unmarked) [Example 4-36], the IC50 was less than 100 nM.

On to `O=C(NCCc1ccc(Cl)cc1)Nc1cccc2c1C[C@H](O)CC2` [Example 4-53], for which the IC50 was less than 100 nM.

For the compound `COC(=O)c1ccc(CNC(=O)Nc2cccc3c2CC(O)CC3)cc1` (centres unmarked) [Example 4-22], the IC50 was less than 100 nM.

Still in this assay, the particulars now being: Table 3; 10 nM capsaicin, human VR1-CHOluc9aeq cells; read-out: activity class.
Consider `CC(C)(C)c1ccc(NC(=O)Nc2cccc3c2CC(O)CC3)cc1` (centres unmarked) [Example 5-9], for which the IC50 is less than 100 nM.

On to `COc1ccc(NC(=O)Nc2cccc3c2CC(O)CC3)cc1O` (centres unmarked) [Example 5-15], for which the IC50 is 500 to 1000 nM.

For `O=C(Nc1ccc(O)cc1)Nc1cccc2c1CC(O)CC2` (centres unmarked) [Example 5-20], the IC50 was 500 to 1000 nM.

Regarding `Cc1cc(C)cc(NC(=O)Nc2cccc3c2CC(O)CC3)c1` (centres unmarked) [Example 5-21], the IC50 is less than 100 nM.

In the case of `CC(C)c1cccc(NC(=O)Nc2cccc3c2CC(O)CC3)c1` (centres unmarked) [Example 5-8], the IC50 is less than 100 nM.

As to `O=C(Nc1cccc(Br)c1)Nc1cccc2c1CC(O)CC2` (centres unmarked) [Example 5-5], the IC50 is less than 100 nM.

As to `COc1ccc(NC(=O)Nc2cccc3c2CC(O)CC3)cc1F` (centres unmarked) [Example 5-17], the IC50 was less than 100 nM.

On to `CSc1ccc(NC(=O)Nc2cccc3c2CC(O)CC3)cc1` (centres unmarked) [Example 5-16], for which the IC50 lay in the range of 100 to 500 nM.
